This note sets out measurements from patent publication US8669249B2, “Poly (ADP-ribose) polymerase (PARP) inhibitors” (Takeda Pharmaceutical Company Limited, priority 2009, dated 2014).

Bounds are passed on as bounds.

T1 sequence (P09874 788-1014 limits assumed): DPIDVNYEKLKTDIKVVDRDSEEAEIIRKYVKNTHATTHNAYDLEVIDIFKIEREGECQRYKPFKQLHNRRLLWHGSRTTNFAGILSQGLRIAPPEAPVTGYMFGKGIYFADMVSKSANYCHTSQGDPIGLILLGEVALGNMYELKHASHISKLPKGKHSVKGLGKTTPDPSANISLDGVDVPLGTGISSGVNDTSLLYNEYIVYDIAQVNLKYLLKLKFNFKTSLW

This assay concerns the target T1, catalytic domain of Human PARP (Homo sapiens, UniProt P09874).
T1 construct: The catalytic domain of Human PARP was cloned and prepared; made in house
Briefly: Biacore surface plasmon resonance affinity assay. Format: binding. Particulars: pKD=-log10 KD, KD in mol/L; Biacore T100, 25° C.; read-out: pKD (converted). The procedure: Dissociation Constant (KD) from Surface Plasmon Resonance
The catalytic domain of Human PARP was cloned and prepared as described in Kinoshita, et al. FEBS Letters (2006), 556:43-46. Purified enzyme was stored at −80° C. in 25 mM Tris(hydroxymethyl)aminomethane (‘Tris’) pH 7.4, 150 mM NaCl, 2 mM dithiothreitol (DTT) at a concentration of 6 mg/mL.
Biacore affinity assays for test compounds were conducted on a Biacore T100 (GE Healthcare) as follows. A Series S Sensor Chip CM5 (part number BR-1006-68, GE Healthcare) was activated for amide coupling with an Amine Coupling Kit (part number BR-1000-50, GE Healthcare) as described by the manufacturer. The mobile phase buffer consisted of Biacore buffer HBS-P (part number BR-1003-68, GE Healthcare) supplemented with 1% v/v dimethylsulfoxide (DMSO), 0.5 mM Tris(2-carboxyethyl)phosphine hydrochloride (TCEP), and 5 mM MgCl2. Enzyme samples (2 μL/6 mg/mL) stored at −80° C. were diluted to 0.080 mg/mL with 10 mM 4-morpholineethanesulfonic acid (MES) pH 6.5 and then mounted on the activated Biacore CM5 chip at a flow rate of 10 μL/min for 240 seconds. […] Test compounds were diluted 9 times 2-fold serially in mobile phase buffer (listed above) at 1% v/v DMSO final to generate a concentration gradient bracketing their anticipated KDs. Biacore mounted PARP was given a 1 minute exposure (association phase) to various concentrations of test compounds to observe a steady state equilibrium or an on-rate. The exposure was followed with a dissociation phase of 5 minutes. The association and dissociation phases were at a flow rate of 50 μL/min and a temperature of 25° C.
Parameters Rmax (response at saturation) and KD (binding constant) were calculated through a nonlinear least squares fitting of the equation to the data by use of the Biacore T100 analysis software.
Parameter optimization was through a nonlinear least squares analysis of the association phase Response=Rmax*(1−exp(−(kon[cmpd]+koff)*t)) and dissociation phase Response=[…] by use of the Biacore T100 analysis software. The binding constant KD was calculated from the definition KD=koff/kon
Background: Surface plasmon resonance follows binding to a sensor surface in real time, without labels.
Regarding `O=C1COc2ccc(CN3CCC(c4ccccc4)CC3)cc2N1` [Compound 25, 6-((4-Phenylpiperidin-1-yl)methyl)-2H-benzo[b][1,4]oxazin-3(4H)-one], the Kd is 0.126 to 1 µM. `CC(c1ccc2c(c1)NC(=O)CO2)N1CC=C(c2ccc(Cl)cc2)CC1` (stereo not shown) [Compound 56, 6-(1-(4-(4-Chlorophenyl)-5,6-dihydropyridin-1(2H)-yl)ethyl)-2H-benzo[b][1,4]oxazin-3(4H)-one]: the Kd was 0.0126 to 0.1 µM.

`COC(=O)c1cccc(C2CCN(Cc3ccc4c(c3)NC(=O)C(C)O4)CC2)c1` (stereo not shown) [Compound 212, Methyl 3-(1-((2-methyl-3-oxo-3,4-dihydro-2H-benzo[b][1,4]oxazin-6-yl)methyl)piperidin-4-yl)benzoate]: the Kd was at least 100 µM. For `CN(C)C1CCN(Cc2ccc3c(c2)NC(=O)CO3)CC1` [Compound 24, 6-((4-(Dimethylamino)piperidin-1-yl)methyl)-2H-benzo[b][1,4]oxazin-3(4H)-one] the value was 12.6 to 79.4 µM; for `CC1Oc2ccc(CN3CCN(c4cccc(C(F)(F)F)c4)CC3)cc2NC1=O` (stereo not shown) [Compound 221, 2-Methyl-6-((4-(3-(trifluoromethyl)phenyl)piperazin-1-yl)methyl)-2H-benzo[b][1,4]oxazin-3(4H)-one], 1.26 to 10 µM. As for `O=C1COc2ccc(CCN3CCN(c4ccncc4)CC3)cc2N1` [Compound 128, 6-(2-(4-(Pyridin-4-yl)piperazin-1-yl)ethyl)-2H-benzo[b][1,4]oxazin-3(4H)-one], the Kd was 12.6 to 79.4 µM. For `CCOC(=O)CN1CCN(Cc2ccc3c(c2)NC(=O)C(C)O3)CC1` (stereo not shown) [Compound 102, Ethyl 2-(4-((2-methyl-3-oxo-3,4-dihydro-2H-benzo[b][1,4]oxazin-6-yl)methyl)piperazin-1-yl)acetate] the value was 1.26 to 10 µM. For the compound `CC1Oc2ccc(CN(C)Cc3ccc(F)cc3)cc2NC1=O` (stereo not shown) [Compound 73, 6-(((4-Fluorobenzyl)(methyl)amino)methyl)-2-methyl-2H-benzo[b][1,4]oxazin-3(4H)-one], the Kd is 1.26 to 10 µM. For `O=C1COc2ccc(CCN3CCN(c4nc5ccccc5[nH]4)CC3)cc2N1` [Compound 129, 6-(2-(4-(1H-Benzo[d]imidazol-2-yl)piperazin-1-yl)ethyl)-2H-benzo[b][1,4]oxazin-3(4H)-one] the value was 12.6 to 79.4 µM; for `CC1Oc2ccc(CN3CCN(c4nc(-c5ccccc5)ns4)CC3)cc2NC1=O` (stereo not shown) [Compound 39, 2-Methyl-6-((4-(3-phenyl-1,2,4-thiadiazol-5-yl)piperazin-1-yl)methyl)-2H-benzo[b][1,4]oxazin-3(4H)-one], above 10 µM. `O=C1COc2ccc(S(=O)(=O)N3CCOCC3)cc2N1` [Compound 116, 6-(Morpholinosulfonyl)-2H-benzo[b][1,4]oxazin-3(4H)-one]: the Kd was 12.6 to 79.4 µM.

Consider `CC1Oc2ccc(CN3CCN(c4ccccc4)CC3)cc2NC1=O` (stereo not shown) [Compound 33, 2-Methyl-6-((4-phenylpiperazin-1-yl)methyl)-2H-benzo[b][1,4]oxazin-3(4H)-one], for which the Kd was 0.126 to 1 µM. On to `CC1Oc2ccc(CN3CCC(N(C)C)CC3)cc2NC1=O` (stereo not shown) [Compound 45, 6-((4-(Dimethylamino)piperidin-1-yl)methyl)-2-methyl-2H-benzo[b][1,4]oxazin-3(4H)-one], for which the Kd is 0.0126 to 0.1 µM. For `CCS(=O)(=O)c1ccc2c(c1)NC(=O)C(C)O2` (stereo not shown) [Compound 23, 6-(Ethylsulfonyl)-2-methyl-2H-benzo[b][1,4]oxazin-3(4H)-one] the value was 12.6 to 79.4 µM; for `CC1Oc2cc(CN(C)Cc3ccccc3)ccc2NC1=O` (stereo not shown) [Compound 92, 7-((Benzyl(methyl)amino)methyl)-2-methyl-2H-benzo[b][1,4]oxazin-3(4H)-one], 12.6 to 79.4 µM; for `CC1Oc2ccc(S(=O)(=O)N3CCC(c4ccccc4)CC3)cc2NC1=O` (stereo not shown) [Compound 121, 2-Methyl-6-(4-phenylpiperidin-1-ylsulfonyl)-2H-benzo[b][1,4]oxazin-3(4H)-one], above 1 µM.
